Experimental data reported in US20230303599A1, “PRODRUGS OF PHOSPHONAMIDE NUCLEOTIDE ANALOGUES AND THEIR PHARMACEUTICAL USE” (priority 2020, published 2023).
Converted amounts (≈) assume the structure as drawn. Where two headings read alike, the source gives them in different places.

Tests used:
PBMCs = assay: TFV-DP formation in peripheral blood mononuclear cells (PBMCs); format: in vitro ADME, human; conditions: 1 μM compound, 2 hrs at 37° C., 50% serum, activated PBMCs; average of at least two independent experiments
Experimental: Example 109: TFV-DP Formation in Peripheral Blood Mononuclear Cells (PBMCs)
Compounds were tested in a 96-well assay format for the level of TFV-DP loading in PBMCs in the presence of human serum. PBMCs were activated with 100 units/mL recombinant human […] and […] phytohaemagglutinin (PHA) for 36 hrs. After activation, PBMCs (2 million) were incubated with compounds (1 μM) and cell culture media with 50% serum in a 96 well plate for 2 hrs at 37° C. Cells were transferred to a 96 well deep block plate and spun down. Liquid was removed, and cells were washed 2× with 1 mL of 0.9% saline with spin downs between washes. After a final wash and liquid removal, 500 μL of MeOH+200 nM C1-ATP+200 nM [adenine-^13Cs]-tenofovir diphosphate (tetra ammonium salt) was added and thoroughly mixed with the cells. The plate was then spun down and 450 μL of sample was transferred to a new 96 well plate. Supernatants were then evaporated, reconstituted in 80 μl of 1 mM ammonium phosphate and thoroughly vortexed. Blank samples were pooled for serial dilution to construct calibration standards for TFV, TFV-DP and TFV-TP in pmol/million cells. Samples were then transferred to a short-well 96 well plate, centrifuged and injected on an LC-MS/MS for quantification. Values were reported in μM units using an intracellular volume of […].

[1] = Kinetic solubility analysis; format: physicochemical; conditions: 1× PBS, 24.2 °C, aqueous buffer, kinetic from dmso stock; pH 7.4 PBS, 1% DMSO, 24-hour incubation at ambient temperature
Method in brief: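 Compounds from 10 mM DMSO stocks were incubated in 0.1 N HCl or 1× PBS pH 7.4 (1.0% DMSO, 100 μM maximum theoretical) for 24 h at 24.2-27.5 °C, then vacuum filtered. Filtrates were quantified in μM by chemiluminescent nitrogen detection against a calibration curve, corrected for background nitrogen; values for adjacent ring-nitrogen compounds were raised ~25%.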

[2] = Cytotoxicity assay in MT-4 cells; format: cell-based; conditions: human, uninfected MT-4 cells, average of at least two independent experiments, read-out: MT4 CC50
Method in brief: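 Uninfected MT-4 cells were incubated 5 days at 37 °C with 1:3 serially diluted compound in RPMI (10% FBS), with 10 μM puromycin as baseline cytotoxicity. Viability was read by CellTiter-Glo luminescence. Values are concentrations giving 50% luminescence decrease, from sigmoidal dose-response fits.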

HIV-1 (IIIB) = assay: Antiviral (HIV) assay in MT-4 cells; format: cell-based
Experimental: Example 104: Antiviral (HIV) Assay in MT-4 Cells
Compounds were tested in a high-throughput 384-well assay format for their ability to inhibit the replication of HIV-1 (IIIB) in MT-4 cells. Compounds were serially diluted (1:3) in DMSO on 384-well polypropylene plates and further diluted 200-fold into complete RPMI media (10% FBS, 1% P/S) using the Biotek Micro Flow and Labcyte ECHO acoustic dispenser. Each plate contained up to 8 test compounds, with negative (no drug) and positive (5 μM AZT) controls. MT-4 cells were pre-treated with 10 μL of either RPMI (mock-infected) or a fresh 1:250 dilution of HIV-1 IIIB concentrated virus stock. Infected and uninfected MT-4 cells were further diluted in complete RPMI media and added to each plate using a Micro Flow dispenser. After 5 days incubation in a humidified and temperature-controlled incubator (37° C.), Cell Titer Glo (Promega) was added to the assay plates and chemiluminescence read using an Envision plate-reader. EC50 values were defined as the compound concentration that causes a 50% decrease in luminescence signal and were calculated using a sigmoidal dose-response model to generate curve fits and are shown in Table 1.

HBV = assay: Antiviral (HBV) assay in primary human hepatocytes (PHHs); format: cell-based; conditions: Hepatitis B virus, Hepatocyte, 120 h; HBV (GTD) infected PHH, 5 days, HBV DNA in supernatant; average of at least two independent experiments
Experimental: Example 106: Antiviral (HBV) Assay in Primary Human Hepatocytes (PHHs)
Cryopreserved PHH were thawed, recovered by centrifugation at 100 g in cryopreserved hepatocyte recovery medium (Thermo Fisher Scientific; CM7500), and plated on collagen matrix (Life Technologies; Catalog Number: R-011-K) coated T225 flasks (Corning CellBIND, Catalog Number: 3293) at a density of 25E6 live cells in 60 mls media. Cells were plated in William's E medium (Thermo Fisher Scientific; A1217601) supplemented with 3.6% hepatocyte thawing and plating supplement (Thermo Fisher Scientific, A15563), 5% fetal bovine serum (Thermo Fisher Scientific; 16000-036), 1 μM dexamethasone (Thermo Fisher Scientific, A15563), and 0.2% Torpedo antibiotic mix (Bioreclamation; Z990008). The plating medium was removed after 14 hours and the cells were subsequently cultured in maintenance medium: William's E medium supplemented with 4% hepatocyte maintenance supplement (Thermo Fisher Scientific; AI15564), 2% fetal bovine serum, 0.1μ M dexamethasone, 1.5% DMSO (Sigma-Aldrich, St. Louis, MO; D8418), and 0.2% Torpedo antibiotic mix. Approximately 24 hours after plating, PHH were infected with HepAD38-derived GTD virus at 500 viral genome equivalents per cell in PHH maintenance medium supplemented with 4% PEG 8000 (Promega, Madison, WI; V3011). Infections were allowed to proceed for 24 hours before removing the remaining extracellular virions by washing with maintenance medium three times. After allowing viral infection to take place for 3 days, the infected cells were harvested from the flasks by trypsinization (0.25X in PBS without Ca/Mg, 25 minutes) following a 4 minute 0.5X Versene (Life Technologies Catalog Number: 15040-066) treatment and two PBS washes. Trypsinized cells were inactivated in 10% FBS containing maintenance medium, centrifuged 6 minutes at 50 g, resuspended in hepatocyte maintenance medium, filtered through a 40 uM cell strainer, and adjusted to a density of 0.25E6 cells/ml. Infected cells were seeded on 384 well collagen coated plates (Greiner, Austria) at a density of 20,000 cells/well containing serially diluted compounds of the present disclosure or DMSO (0.5%) in a final volume of 80 μl. The assay plates were incubated for a period of 5 days and the antiviral activity of the test compounds were assayed by detecting the presence of HBV DNA in the culture supernatant using the QuantiGene™ 2.0 nucleic acid quantification kit (Affymetrix, Santa Clara, CA).

[3] = Cytotoxicity assay in primary human hepatocytes (PHHs); format: cell-based; conditions: HBV-infected primary human hepatocytes, HBV-infected PHH, Cell Titer Glo, average of at least two independent experiments
Method in brief: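 HBV-infected primary human hepatocytes seeded at 20K cells/well on compound-prespotted collagen plates and incubated 5 days. After removing supernatant for HBV DNA analysis, viability measured in remaining cells by CellTiter-Glo luminescence.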

[4] = Human immunodeficiency virus 1, IIIB, MT4, 120 h, read-out: MT4 HIV EC50 (nM)

SMILES	Average PBMC TFV-DP (μM) (PBMCs)	solubility kinetic at 24 h [1] [µg/mL]	CC50 at 5 days [2] [nM]	EC50 (HIV-1 (IIIB); [4]) [nM]	also measured
C[C@H](Cn1cnc2c(N)ncnc21)OCP(=O)(NC(C)(C)C(=O)O[C@H]1CC[C@H](C(C)(C)C)CC1)NC(C)(C)C(=O)O[C@H]1CC[C@H](C(C)(C)C)CC1 [Example 12, Bis(trans-4-(tert-butyl)cyclohexyl) 2,2′-((((((R)-1-(6-amino-9H-purin-9-yl)propan-2-yl)oxy)methyl)phosphoryl)bis(azanediyl))bis(2-methylpropanoate)]	BLQ	< 1	–	–	–
C[C@H](Cn1cnc2c(N)ncnc21)OCP(=O)(NC(C)(C)C(=O)OCC1CCC(C)(C)CC1)NC(C)(C)C(=O)OCC1CCC(C)(C)CC1 [Example 13, Bis((4,4-dimethylcyclohexyl)methyl) 2,2′-(((((1-(6-amino-9H-purin-9-yl)propan-2-yl)oxy)methyl)phosphoryl)bis(azanediyl))(R)-bis(2-methylpropanoate)]	–	< 1	5470	–	EC50 (HIV-1 (IIIB); Human immunodeficiency virus 1, MT4, 120 h, HIV-1 IIIB in MT-4 cells, 5 days, Cell Titer Glo, average of at least two independent experiments, read-out: MT4 HIV EC50): 16 nM
C[C@H](Cn1cnc2c(N)ncnc21)OCP(=O)(NC(C)(C)C(=O)OC1CCOCC1)NC(C)(C)C(=O)OC1CCOCC1 [Example 24, Bis(tetrahydro-2H-pyran-4-yl) 2,2′-(((((1-(6-amino-9H-purin-9-yl)propan-2-yl)oxy)methyl)phosphoryl)bis(azanediyl))(R)-bis(2-methylpropanoate)]	BLQ	69 (≈ 110 µM)	–	–	–
CC(C)CCCOC(=O)C(C)(C)NP(=O)(CO[C@H](C)Cn1cnc2c(N)ncnc21)NC(C)(C)C(=O)OCCCC(C)C [Example 67, Bis(4-methylpentyl) 2,2′-(((((1-(6-amino-9H-purin-9-yl)propan-2-yl)oxy)methyl)phosphoryl)bis(azanediyl))(R)-bis(2-methylpropanoate)]	–	–	–	–	Average PBMC TFV-DP (PBMCs): 5.5 µM; EC50 (HIV-1 (IIIB); HIV-1 IIIB in MT-4 cells, 5 days, Cell Titer Glo, average of at least two independent experiments, read-out: MT4 HIV EC50): 8 nM
CCC[C@H]1CC[C@H](COC(=O)C(C)(C)NP(=O)(CO[C@H](C)Cn2cnc3c(N)ncnc32)NC(C)(C)C(=O)OC[C@H]2CC[C@H](CCC)CC2)CC1 [Example 92]	–	< 1	7990	–	EC50 (HBV): 4.56 nM; CC50 at 5 days [3]: > 100 nM
CCCCCCOC(=O)C(C)(C)NP(=O)(CO[C@H](C)Cn1cnc2c(NC(=O)CCCSC(C)=O)ncnc21)NC(C)(C)C(=O)OCCCCCC [Example 97, Dihexyl 2,2′-(((((1-(6-(4-(acetylthio)butanamido)-9H-purin-9-yl)propan-2-yl)oxy)methyl)phosphoryl)bis(azanediyl))(R)-bis(2-methylpropanoate)]	–	13 (≈ 16.9 µM)	10700	13	–
CCCCCCOC(=O)C(C)(C)NP(=O)(CO[C@H](C)Cn1cnc2c(NC(=O)CC(C)(C)c3c(C)cc(C)cc3OC(C)=O)ncnc21)NC(C)(C)C(=O)OCCCCCC [Example 100, Dihexyl 2,2′-(((((1-(6-(3-(2-acetoxy-4,6-dimethylphenyl)-3-methylbutanamido)-9H-purin-9-yl)propan-2-yl)oxy)methyl)phosphoryl)bis(azanediyl))(R)-bis(2-methylpropanoate)]	–	–	–	22	–
CCCCCCOC(=O)C(C)(C)NP(=O)(CO[C@H](C)Cn1cnc2c(NC(=O)CC(C)(C)CC(=O)OCc3oc(=O)oc3C)ncnc21)NC(C)(C)C(=O)OCCCCCC [Example 102, Dihexyl 2,2′-(((((1-(6-(3,3-dimethyl-5-((5-methyl-2-oxo-1,3-dioxol-4-yl)methoxy)-5-oxopentanamido)-9H-purin-9-yl)propan-2-yl)oxy)methyl)phosphoryl)bis(azanediyl))(R)-bis(2-methylpropanoate)]	BLQ	10 (≈ 11.4 µM)	45100	–	–
C[C@H](Cn1cnc2c(N)ncnc21)OCP(=O)(NC(C)(C)C(=O)OCCc1ccccc1)NC(C)(C)C(=O)OCCc1ccccc1 [Example 103, Diphenethyl 2,2′-(((((1-(6-amino-9H-purin-9-yl)propan-2-yl)oxy)methyl)phosphoryl)bis(azanediyl))(R)-bis(2-methylpropanoate)]	–	–	> 42500	> 500	–
